The values that follow come from patent US20240139104A1, “MICELLE RELEASING THERMOSENSITIVE HYDROGELS AS A THERAPEUTIC DELIVERY SYSTEM” (GEORGIA TECH RESEARCH CORPORATION, priority 2021, published 2024).

One data set concerns B16F10-OVA tumor. Put plainly: GSNO (i.t.) and aCTLA-4 (i.p.) therapy without hydrogel, dual tumor model. The conditions noted are these: GSNO 480 μg kg^−1 i.t. day 7; aCTLA-4 100 μg mouse^−1 i.p. day 8, 11, 14; compared to saline. It is filed as in vivo, mice. As to the method:
In brief, 10^5 B16F10-OVA (30 μL) was inoculated in left dorsal skin on day 0 and in right dorsal skin on day 4 to establish dual tumor model. 30 μL of saline or GSNO (480 μg kg ^−1) was administered to the left tumor on day 7 and 30 μL of aCTLA-4 (100 μg mouse^−1) was administered intraperitoneally on day 8, 11, 14.

For another data set, the system named is immune cells in blood. The data set is described as follows: Immune cell profiles in blood (flow cytometry) after GSNO and aCTLA-4. The format is in vivo, mice. The conditions noted are these: CD4+T, CD8+T, NKT populations. As to the method: Immune cells in blood were collected and profiled to delineate the systemic immunity in the combinational use of GSNO and aCTLA-4 (FIG. 29). In brief, ACK lysis buffer was treated to the blood taken on day 9 to harvest immune cells in blood by removing red blood cells. All cells were stored on ice<2 h prior to use. Cells for flow cytometry were prepared by six steps with PBS, FACS buffer, or permeabilization buffer (eBioscience™ Foxp3/Transcription Factor Staining Buffer Set, Invitrogen™) wash; 2.4G2 staining on ice for 5 min, Zombie Aqua fixable viability dye staining at room temperature for 30 min, […]-MHCI-PE tetramer (NIH Tetramer Core Facility, Atlanta, Georgia) staining on ice for 15 min, antibody mixtures staining on ice for 30 min, fixing and permeabilizing with Foxp3 Fixation/Permeabilization working solution (eBioscience™ Foxp3/Transcription Factor Staining Buffer Set, Invitrogen™) on ice for 60 min, and FoxP3 staining on ice for 75 min. LSR Fortessa flow cytometry and flowJo were employed to analyze and profiles the stained cells.
Background: Flow cytometry measures light scatter and fluorescence of single cells or particles in a stream.

Data set [1] is described as follows: Absorption/fluorescence and photostability of IR780 exposed to daylight. It is filed as physicochemical. The conditions noted are these: 10% ethanol.
Data set [2] concerns B16F10-OVA tumor and TdLNs. The conditions noted are these: 15 μL of 0.016 mg mL^−1 IR780 intratumoral, IVIS 24 h after injection.

Regarding `N[C@@H](CCC(=O)N[C@@H](CSN=O)C(=O)NCC(=O)O)C(=O)O` [GSNO, S-nitrosoglutathione], the “therapeutic effects (1º and 2º tumor growth)” value with B16F10-OVA tumor is on record as “did not lead to any therapeutic effects”. The “systemic activation and expansion of T cell, NK and NKT in blood” value in the data set on immune cells in blood is “failed to induce systemic activation and expansion of T cell, NK and NKT response”.
For `CCCN1C(=CC=C2CCCC(C=CC3=[N+](CCC)c4ccccc4C3(C)C)=C2Cl)C(C)(C)c2ccccc21.[I-]` [IR780, IR780 iodide], in data set [1], the “time to complete photobleaching” value is at most 24 h. In addition, the “IR780 signal in injected tumor tissues and TdLNs” value in data set [2] is “cleared quickly from the injected tumor tissues and exhibited negligible signals in the TdLNs”.
